Measurements reported in ChEMBL document CHEMBL1147387, “A cytotoxic beta-carboline from the bryozoan Catenicella cribraria” (1993).

Test: Cytotoxicity against human NCI60 cells
Type: functional

Question: For C=Cc1nccc2c1[nH]c1c(O)cccc12, which GI50 is on record?
Answer: 1.8 µM

Question: And the TGI?
Answer: 5.8 µM

Question: And the CC50 (read-out: LC50 (the source's name))?
Answer: 19 µM
